Test results from article PMC6865181, “Role of L-Type Amino Acid Transporter 1 (LAT1) for the Selective Cytotoxicity of Sesamol in Human Melanoma Cells” (Molecules, 2019).
Read-outs that look alike come from different tables or passages of the source. Marks after values point to notes of the source that are not given here.

Tests used:
[1] = system: Vero cells; assay: Antiproliferative effect, neutral red uptake assay, Vero cells; format: cell-based, African green monkey; conditions: Vero cells, 24 h exposure, neutral red; read-out: IC50 (cell viability)
Method: (§1) The SK-MEL-2 and Vero cells (at 5 × 10^4 cells/well) were seeded separately into 96-well plates. After the cells were exposed to the tested compounds (200 µL) for 24 h, neutral red (50 µg/mL) (Sigma-Aldrich, St. Louis, MO, USA) was incorporated into the cells for 2 h. The cells were then washed with ice-cold PBS and lysed using 0.33% HCl in isopropanol. The absorbances of neutral red were measured at 540 nm with a reference wavelength of 660 nm using a UV-microplate reader (Perkin Elmer, Waltham, MA, USA). […] The selective index was calculated from the ratio of the IC50 of Vero and SK-MEL-2 cells.

[2] = biological target: T1, LAT1 (Homo sapiens, UniProt Q01650); assay: LAT1 function: competitive uptake of L-dopa in SK-MEL-2 cells; format: cell-based; conditions: SK-MEL-2, L-dopa 0.1 mM, 10 min
Method: (§2) SK-MEL-2 and Vero cells were seeded separately into 24-well plates at 2 × 10^5 cells/well for 24 h. The media was removed, and the cells pre-incubated with HBSS pH 7.4 for 10 min. The cells were used for the following experiments.
(§3) Sesamol was also investigated for its affinity to LAT1. […] Competitive uptake was performed for 10 min then the cells were washed twice with ice-cold PBS. The L-dopa was solubilized by 0.1 M HCl and the cell lysate (25 µL) was pipetted for protein determination. […] Intracellular and extracellular L-dopa was quantified by the HPLC assay. The L-dopa uptake was represented as the distribution volume of L-dopa in a cell to media ratio (C/M ratio) as calculated in Section 4.3.1.
The analysis was based on a BDS Hypersil C-18 column, (4.6 × 250 mm, 5 µm packing, Thermo Fisher Scientific, Waltham, MA, USA). The column temperature was set at 30 °C with a flow rate of 0.8 mL/min. The mobile phase for sesamol quantification was 70% methanol in water, vs. 20% methanol in water for L-dopa. […] The validated sesamol quantification conducted using sesamol spiked cell lysate with high selectivity and clear separation from the endogenous cell lysate as previously reported. The % bias and % precision was determined within and between days, each was maintained below 6%.

[3] = stated in the introduction without reference; cited from earlier work
[4] = system: SK-MEL-2 cells; assay: Antiproliferative effect, neutral red uptake assay, SK-MEL-2 cells; format: cell-based, human
Method: as §1

[5] = system: Vero cells; assay: Uptake kinetics of sesamol at 37 °C and 4 °C in Vero cells; conditions: for Pd (sesamol passive diffusion) / Vmax (sesamol uptake): 1 min
Method: as §2
(§4) The cells were pre-incubated with HBSS pH 7.4 at 37 °C and at 4 °C both for 10 min. The cells were treated with sesamol (200 µL; range, 31.5 to 1,000 μM) and incubated under each condition for another 1 min, to exclude the influence of efflux or metabolism processes as per the previous report. The uptake process at 37 °C represented the total uptake of sesamol in the cells, including both carrier-mediated transport and passive transport; whereas the uptake process at 4 °C represented mainly passive transport.
(§5) The uptake kinetics was fitted using Michaelis-Menten kinetics (non-linear least square kinetics model) (r^2 > 0.90) Equation (1) that allowed estimation of Vmax, Km, and Pd values.
(§6) V = (Vmax × [S])/(Km + [S]) + Pd × [S](1)
(§7) V = uptake velocity at a certain amount of substrate (nmol/min/mg protein)
(§8) Vmax = maximum uptake velocity (nmol/min/mg protein)
(§9) [S] = concentration of sesamol at extracellular compartment (µM)
(§10) Km = concentration of sesamol at half of Vmax (µM)
(§11) Pd = passive lipoidal diffusion uptake rate (µL/min/mg protein)
(§12) The rate to reach total uptake clearance of carrier-mediated transport was obtained from the ratio of Vmax to Km (µL/min/mg protein). The total uptake clearance of the process (µL/min/mg protein) was obtained from (Vmax /Km) + Pd.

[6] = system: LAT1; conditions: Vero cells; sesamol 0.1 mM, uptake equilibrium 10 min
Method: as §2
(§13) Competitive inhibition of uptake of sesamol was done in both SK-MEL-2 and the Vero cells. […] The cells were washed twice with ice-cold PBS, solubilized in methanol, and centrifuged at 2400× g, at 4 °C for 20 min. The precipitated protein was re-solubilized by 0.1 M NaOH prior to protein determination. The sesamol content was quantified using HPLC assay. The cellular uptake of sesamol was calculated as per the C/M ratio.
(§14) Quantitative analysis of sesamol and L-dopa were performed using a Shimadzu HPLC (LC-2030C-3D) with a UV photodiode array detector (DAD) (Kyoto, Japan). The analysis was based on a BDS Hypersil C-18 column, (4.6 × 250 mm, 5 µm packing, Thermo Fisher Scientific, Waltham, MA, USA). The column temperature was set at 30 °C with a flow rate of 0.8 mL/min. The mobile phase for sesamol quantification was 70% methanol in water, vs. 20% methanol in water for L-dopa. The respective detection wavelength and elution time for sesamol and L-dopa was 297 nm and 280 nm and 4.2 and 4.5 min. The validated sesamol quantification conducted using sesamol spiked cell lysate with high selectivity and clear separation from the endogenous cell lysate as previously reported. The % bias and % precision was determined within and between days, each was maintained below 6%.

[7] = system: Vero cells; assay: Time-course of sesamol cellular uptake (distribution) in Vero cells; format: in vitro ADME, African green monkey
Method: (§15) The cells were used for the following experiments.
(§16) The cells were exposed to 1 mM (200 µL) sesamol and incubated at 37 °C at various times (0.5, 1, 3, 5, 10, and 15 min). The media was plated into 96-well plates prior to measuring the extracellular sesamol content by HPLC analysis. […] The sesamol content in 20 µL of cell lysate was quantified using HPLC assay as described in the analytical procedure.
(§17) The cellular uptake of sesamol was determined based on the sesamol content in cells (nmol/mg protein) to medium (nmol/µL) (expressed as C/M ratio, µL/mg protein). The linear regression of the C/M ratio from 0.5 to 3 min was performed (r^2 > 0.90); to give the initial distribution volume (µL/mg protein) from the y-intercept, and the initial uptake clearance (µL/min/mg protein) from the slope.

[8] = system: SK-MEL-2 cells; assay: Uptake kinetics of sesamol at 37 °C and 4 °C in SK-MEL-2 cells; conditions: for Pd (sesamol passive diffusion) / Vmax (sesamol uptake) / Km: 1 min; for Km: read-out: Km (sesamol uptake)
Method: as §2, §4, §5, §6, §7, §8, §9, §10, §11, §12

[9] = biological target: T1, LAT1; assay: cell-based; conditions: SK-MEL-2; sesamol 0.1 mM, uptake equilibrium 10 min
Method: as §2, §13, §14

[10] = system: SK-MEL-2 cells; assay: Time-course of sesamol cellular uptake (distribution) in SK-MEL-2 cells; format: in vitro ADME, human
Method: as §15, §16, §17

[11] = system: LAT1; assay: LAT1 function: competitive uptake of L-dopa in Vero cells; format: cell-based, African green monkey; conditions: L-dopa 0.1 mM, 10 min
Method: as §2, §3, §14

[12] = competitor (BCH, L-tyrosine, sesamol 1 mM; L-leucine, L-alanine 2 mM; melphalan 0.05 mM)
[13] = competitor at the concentration printed in the row
[14] = 1 mM sesamol, 37 °C, linear regression 0.5-3 min

T1 sequence (Q01650 whole entry): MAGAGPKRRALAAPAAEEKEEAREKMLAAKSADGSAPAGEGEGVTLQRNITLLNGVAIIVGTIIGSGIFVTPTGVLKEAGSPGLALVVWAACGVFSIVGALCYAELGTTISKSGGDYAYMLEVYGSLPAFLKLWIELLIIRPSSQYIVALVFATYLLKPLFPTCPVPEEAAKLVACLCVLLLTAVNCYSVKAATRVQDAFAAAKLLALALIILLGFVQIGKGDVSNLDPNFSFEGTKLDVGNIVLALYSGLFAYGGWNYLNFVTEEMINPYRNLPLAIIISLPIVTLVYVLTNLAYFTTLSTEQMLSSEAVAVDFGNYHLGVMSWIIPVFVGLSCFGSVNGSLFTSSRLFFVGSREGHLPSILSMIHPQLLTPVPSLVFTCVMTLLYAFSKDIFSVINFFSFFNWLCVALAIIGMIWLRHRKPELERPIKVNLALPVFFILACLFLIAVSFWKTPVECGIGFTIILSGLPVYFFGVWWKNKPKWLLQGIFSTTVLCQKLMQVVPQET
T1 sequence (P08195 102-630 partner): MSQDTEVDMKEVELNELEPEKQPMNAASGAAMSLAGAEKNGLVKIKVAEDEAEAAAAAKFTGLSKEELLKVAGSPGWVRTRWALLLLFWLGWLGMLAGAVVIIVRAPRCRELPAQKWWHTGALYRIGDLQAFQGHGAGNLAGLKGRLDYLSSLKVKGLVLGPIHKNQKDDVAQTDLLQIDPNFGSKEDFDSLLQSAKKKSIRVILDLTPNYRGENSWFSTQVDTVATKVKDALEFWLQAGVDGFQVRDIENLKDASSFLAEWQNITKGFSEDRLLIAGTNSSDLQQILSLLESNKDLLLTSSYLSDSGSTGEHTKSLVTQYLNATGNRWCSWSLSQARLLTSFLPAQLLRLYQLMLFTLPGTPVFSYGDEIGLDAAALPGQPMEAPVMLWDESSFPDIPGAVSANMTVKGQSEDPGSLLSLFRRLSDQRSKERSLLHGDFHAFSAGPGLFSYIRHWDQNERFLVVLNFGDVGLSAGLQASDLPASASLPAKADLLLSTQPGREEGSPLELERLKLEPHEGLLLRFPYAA

Oc1ccc2c(c1)OCO2 [Sesamol]
IC50 [1]: 6.7 ± 0.2 mM | Percent Inhibition of L-Dopa Distribution Volume [2, 12]: 44% | L-Dopa Distribution Volume in presence of the compound [2, 13]: 207.6 ± 31.5 µL/mg Protein | logP [3]: 1.29 | Selective Index [4]: 3.4 | IC50 ([4]; SK-MEL-2, 24 h exposure, neutral red, read-out: IC50 (cell viability)): 2 ± 0.1 mM | Pd (sesamol passive diffusion) ([5]; 4 °C): 2.4 ± 0.3^a µL/min/mg | Vmax (sesamol uptake) ([5]; 4 °C): 0.4 ± 0.1^b nmol/min/mg | Pd (passive diffusion of sesamol) ([5]; 37 °C): 2.1 ± 0.1 µL/min/mg protein | Vmax (carrier-mediated transport of sesamol) ([5]; 37 °C): 0.9 ± 0.0 nmol/min/mg protein | carrier-mediated transport as share of total uptake clearance ([5]; 37 °C): 72% | Pd (sesamol passive diffusion) ([5]; 37 °C, sesamol alone): 2.1 ± 0.1^a µL/min/mg | Vmax (sesamol uptake) ([5]; 37 °C, sesamol alone): 0.9 ± 0.0^a nmol/min/mg | Km ([5]; read-out: Km (sesamol uptake), 4 °C, 1 min): 66.1 ± 20 µM | Km ([5]; read-out: Km (sesamol uptake), 37 °C, sesamol alone, 1 min): 160 ± 18.4 µM | Sesamol Distribution Volume, control (no competitor) [6]: 0% (17.9 ± 1.7)^a µL/mg Protein | initial distribution volume [7, 14]: 5.7 ± 0.4 µL/mg protein | initial uptake clearance [7, 14]: 1.3 ± 0.2 µL/min/mg protein | reduction in sesamol distribution volume at 4 °C compared to 37 °C ([7]; 30 s): 33% | time at which sesamol uptake reached a steady state ([7]; 37 °C): about 5 min | reduction in sesamol distribution volume at 4 °C compared to 37 °C ([7]; 1 min): 23% | carrier-mediated uptake clearance in SK-MEL-2 cells relative to Vero cells ([8]; 37 °C): 3.4 fold | Pd (sesamol passive diffusion) ([8]; SK-MEL-2, 4 °C): 2.7 ± 0.1^a µL/min/mg | Vmax (sesamol uptake) ([8]; SK-MEL-2, 4 °C): 0.3 ± 0.1^b nmol/min/mg | Pd (passive diffusion of sesamol) ([8]; SK-MEL-2, 37 °C): 2.3 ± 0.2 µL/min/mg protein | Vmax (carrier-mediated transport of sesamol) ([8]; SK-MEL-2, 37 °C): 4.2 ± 0.1 nmol/min/mg protein | carrier-mediated transport as share of total uptake clearance ([8]; SK-MEL-2, 37 °C): 89% | Pd (sesamol passive diffusion) ([8]; SK-MEL-2, 37 °C, sesamol alone): 2.3 ± 0.2^b µL/min/mg | Vmax (sesamol uptake) ([8]; SK-MEL-2, 37 °C, sesamol alone): 4.2 ± 0.1^a nmol/min/mg | Km ([8]; SK-MEL-2, 4 °C): 26.8 ± 9.8 µM | Km ([8]; SK-MEL-2, 37 °C, sesamol alone): 225 ± 19.3 µM | Sesamol Distribution Volume, control (no competitor) [9]: 0% (23.2 ± 2.1)^a µL/mg Protein | initial distribution volume [10, 14]: 6.0 ± 0.4 µL/mg protein | initial uptake clearance [10, 14]: 2.6 ± 0.1 µL/min/mg protein | suppression of sesamol uptake at 4 °C compared to 37 °C ([10]; 30 s): 45% | time at which sesamol uptake reached a steady state ([10]; 37 °C): approximately 10 min | suppression of sesamol uptake at 4 °C compared to 37 °C ([10]; 1 min): 61% | Percent Inhibition of L-Dopa Distribution Volume [11, 12]: 33% | L-Dopa Distribution Volume in presence of the compound [11, 13]: 103.9 ± 9.2 µL/mg Protein
